Consider 30 compounds from patent publication US7452894B2, “Purine derivatives as purinergic receptor antagonists” (Vernalis Research Limited, priority 2001, dated 2008).

pKi: −log10 of the molar value. Read-outs that look alike come from different tables or passages of the source.

Data set [1] addresses human adenosine A2A receptors (Homo sapiens, UniProt P29274). As to the kind of experiment: Binding affinities at hA2A receptors, displacement of [3H]-CGS 21680. For orientation: Displacement assays read how much labelled ligand stays bound in the presence of the test substance.
In data set [2] the test system is adenosine A2A receptor. The settings on record: cited from earlier work.
The conditions of data set [3]: cited from earlier work.
The mark [4] stands for this setting: human adenosine A2A receptor, radioligand [3H]-CGS 21680.

A word on the melting point: it is the temperature, or range, at which the solid turns liquid. What is called pKi is the negative decadic logarithm of the Ki, by convention in mol/L. Low readings indicate a high Ki, high ones a low Ki.

Sequence of human adenosine A2A receptors (P29274 whole entry): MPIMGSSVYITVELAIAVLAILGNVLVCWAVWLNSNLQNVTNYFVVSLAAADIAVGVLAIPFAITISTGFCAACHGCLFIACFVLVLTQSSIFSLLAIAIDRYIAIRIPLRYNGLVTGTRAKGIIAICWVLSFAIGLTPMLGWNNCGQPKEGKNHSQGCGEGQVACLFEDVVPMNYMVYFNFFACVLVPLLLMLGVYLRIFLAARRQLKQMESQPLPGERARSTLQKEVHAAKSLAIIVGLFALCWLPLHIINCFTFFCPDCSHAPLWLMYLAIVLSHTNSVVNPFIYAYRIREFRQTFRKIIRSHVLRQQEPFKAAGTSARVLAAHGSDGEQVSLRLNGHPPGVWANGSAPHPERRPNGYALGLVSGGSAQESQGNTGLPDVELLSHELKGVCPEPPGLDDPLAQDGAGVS

Consider `CSc1nc(-c2ccco2)c2nc[nH]c2n1` [Example 13, 6-(2-Furyl)-2-methylthio-1H-purine], for which the melting point lay within 239.5 to 239.9 °C. In addition, in data set [1], the pKi was 7.92.

In turn, `Cc1cccc(CNC(=O)n2cnc3c(-c4ccco4)nc(N)nc32)c1` [Example 47, 2-Amino-6-(2-furyl)-N-(3-methylbenzyl)-9H-purine-9-carboxamide] showed a pKi in data set [1] (setting [4]) of 9.00. In the case of `CCCCCNC(=O)n1cnc2c(-c3ccco3)nc(N)nc21` [Example 52, 2-Amino-6-(2-furyl)-N-n-pentyl-9H-purine-9-carboxamide], in data set [1], the pKi was 8.30. For `Nc1nc(-c2ccco2)c2ncn(C/C=C/c3ccccc3)c2n1` [Example 57, 6-(2-Furyl)-9-(1-phenyl-1-propene-3-yl)-9H-purine-2-amine], the pKi in data set [1] is 7.92. Consider `Nc1nc(-c2ccco2)c2ncn(C(=O)NCc3ccc(F)cc3)c2n1` [Example 79, 2-Amino-N-(4-fluorobenzyl)-6-(2-furyl)-9H-purine-9-carboxamide], for which the pKi in data set [1] (setting [4]) was 9.00.

`Nc1nc(-c2ccco2)c2ncn(C(=O)NCc3ccc(Cl)c(Cl)c3)c2n1` [Example 80, 2-Amino-N-(3,4-dichlorobenzyl)-6-(2-furyl)-9H-purine-9-carboxamide]: the pKi in data set [1] is 8.30. `Nc1nc(-c2ccco2)c2ncn(C(=O)NCCc3ccccc3)c2n1` [Example 92, 2-Amino-6-(2-furyl)-N-(2-phenylethyl)-9H-purine-9-carboxamide]: the negative-log Ki (pKi) in data set [1] (setting [4]) is 8.22. In turn, `Nc1nc(-c2ccco2)c2ncn(C(=O)NCc3ccc(Cl)cc3Cl)c2n1` [Example 93, 2-Amino-N-(2,4-dichlorobenzyl)-6-(2-furyl)-9H-purine-9-carboxamide] gave a pKi in data set [1] of 8.40.

Turning to `Nc1nc(-c2ccco2)c2ncn(C(=O)OCc3ccccc3)c2n1` [Example 106, Benzyl 2-amino-6-(2-furyl)-9H-purine-9-carboxylate], the melting point is 161.7 °C (dec.). The pKi in data set [1] is 9.00. In data set [1] (setting [4]), `COc1nc(-c2ccco2)c2ncn(C(=O)NCc3ccccc3)c2n1` [Example 112, N-Benzyl-2-methoxy-6-(2-furyl)-9H-purine-9-carboxamide] showed a pKi of 8.10. `CN(Cc1ccccc1)C(=O)n1cnc2c(-c3ccco3)nc(N)nc21` [Example 118, 2-Amino-N-benzyl-6-(2-furyl)-N-methyl-9H-purine-9-carboxamide] had a pKi in data set [1] of 8.52.

In turn, `Nc1nc(-c2ccco2)c2ncn(Cc3cccc(Cl)c3)c2n1` [Example 125, 9-(3-Chlorobenzyl)-6-(2-furyl)-9H-purine-2-amine] gave a pKi in data set [1] of 8.22.

`Cc1cccc(Cn2cnc3c(-c4ccco4)nc(N)nc32)c1` [Example 126, 6-(2-Furyl)-9-(3-methylbenzyl)-9H-purine-2-amine] gave a pKi in data set [1] of 8.15.

`Cc1ccc(Cn2cnc3c(-c4ccco4)nc(N)nc32)cc1` [Example 127, 6-(2-Furyl)-9-(4-methylbenzyl)-9H-purine-2-amine] had a pKi in data set [1] of 8.05. Turning to `Nc1nc(-c2ccco2)c2ncn(CC(=O)Nc3cccc(Cl)c3)c2n1` [Example 141, 2-Amino-N-(3-chlorophenyl)-6-(2-furyl)-9H-purine-9-acetamide], the melting point was 278 °C (dec.). The compound also showed a pKi in data set [1] of 7.44.

As for `Nc1nc(-c2ccco2)c2ncn(Cc3ccccc3F)c2n1` [Example 157, 9-(2-Fluorobenzyl)-6-(2-furyl)-9H-purine-2-amine], in data set [1], the pKi was 8.40. In data set [1], `Nc1nc(-c2ccco2)c2ncn(S(=O)(=O)c3ccc(Br)cc3)c2n1` [Example 162, 9-(4-Bromophenyl)sulphonyl-6-(2-furyl)-9H-purine-2-amine] gave a pKi of 8.10. The same measure, in the same setting: for `Nc1nc(-c2ccco2)c2ncn(S(=O)(=O)/C=C/c3ccccc3)c2n1` [Example 185, 6-(2-Furyl)-9-(2-phenylethenyl)sulphonyl-9H-purine-2-amine] the value was 8.15. Same read-out and setting: for `Nc1nc(-c2ccco2)c2ncn(CCCc3cccnc3)c2n1` [Example 189, 6-(2-Furyl)-9-(3-(3-pyridyl)propyl)-9H-purine-2-amine] the value was 7.68; for `Nc1cccc(Cn2cnc3c(-c4ccco4)nc(N)nc32)c1` [Example 192, 9-(3-Aminobenzyl)-6-(2-furyl)-9H-purine-2-amine], 7.62. In the case of `Nc1nc(-c2ccco2)c2ncn(C(=O)NCc3ccco3)c2n1` [Example 201, 2-Amino-6-(2-furyl)-N-(2-furylmethyl)-9H-purine-9-carboxamide], the pKi in data set [1] (setting [4]) is 8.70. Turning to `Nc1nc(-c2ccco2)c2ncn(C(=O)NCc3cccs3)c2n1` [Example 202, 2-Amino-6-(2-furyl)-N-(2-thienylmethyl)-9H-purine-9-carboxamide], in data set [1] (setting [4]), the pKi is 9.00. Compared with the last compound, the pKi is 0.30 log units higher. With `Cc1ccc(Cn2cnc3c(-c4ccc(C)o4)nc(N)nc32)cc1` [Example 208, 9-(4-Methylbenzyl)-6-(5-methyl-2-furyl)-9H-purine2-amine], the melting point is 210 to 220 °C (dec.). The pKi in data set [1] was 8.22. As to `Cc1cccc(Cn2cnc3c(-c4ccco4)nc(N)nc32)n1` [Example 212, 6-(2-Furyl)-9-(6-methyl-2-pyridyl)methyl-9H-purine-2-amine], in data set [1], the pKi was 7.46.

`Cn1cnc(S(=O)(=O)Nc2ccccc2Cn2cnc3c(-c4ccco4)nc(N)nc32)c1` [Example 235, 6-(2-Furyl)-9-(2-(1-methyl-1H-imidazol-4-ylsulphonylamino)benzyl)-9H-purine-2-amine] registered a melting point of 253.1 to 257.1 °C. The pKi in data set [1] was 8.40.

In turn, `Nc1nc(-c2ccco2)c2ncn(Cc3ccc(Cl)s3)c2n1` [Example 240, 9-(5-Chloro-2-thienylmethyl)-6-(2-furyl)-9H-purine-2-amine] yielded a melting point of 210.9 to 211.5 °C. This compound also showed a pKi in data set [1] of 8.15. On the same counts, the results for `Cc1csc(-c2nc(N)nc3c2ncn3Cc2ccccc2F)n1` [Example 244, 9-(2-Fluorobenzyl)-6-(4-methyl-2-thiazolyl)-9H-purine-2-amine] are 259.2 °C and 8.15. The compound `Nc1nc(-c2ccco2)c2ncn(Cc3cc([N+](=O)[O-])ccc3F)c2n1` [Example 259, 9-(2-Fluoro-5-nitrobenzyl)-6-(2-furyl)-9H-purine-2-amine] showed a pKi in data set [1] of 7.96. `CCCn1c(=O)c2c(nc(/C=C/c3ccc(OC)c(OC)c3)n2C)n(CCC)c1=O` [KF 17837, (E)-8-(3,4-dimethoxystyryl)-1,3-dipropyl-7-methylxanthine]: in data set [2] (in vivo), the “anticataleptic effects of a subthreshold dose of L-DOPA plus benserazide” value is given as “potentiated”; the “catalepsy induced by haloperidol and reserpine” value is on record as “reduced”. In addition, the “cataleptic responses induced by intracerebroventricular CGS 21680” value in data set [2] (oral administration) was “significantly ameliorated”. On to `Cn1c(=O)c2[nH]cnc2n(C)c1=O` [theophylline], for which, in data set [3] (15 Parkinsonian patients, up to 12 weeks, 150 mg/day oral), the “mean objective disability scores” value is “significant improvements”. Also, the serum theophylline levels in data set [3] (slow release oral preparation 150 mg/day, after one week, Parkinsonian patients) is recorded as 4.44 mg/L.
